Data reported in EP2801573A1, “Hydantoine derivatives as CD38 inhibitors” (SANOFI, priority 2013, dated 2014).
Structures can show the parent of a compound that is named as a salt.

The compounds below were run against T1, human recombinant CD38 enzyme (Homo sapiens, UniProt P28907) (assay: Human recombinant enzyme assay (fluorimetric CD38 enzyme assay, ε-NAD substrate)). Settings: recombinant CD38 100 ng/ml, ε-NAD 100 µM, pH = 6.0, 37°C, reaction time 30 min; read-out: IC50 (nM) ENAD.
T1 construct: purchased R&D Systems H7006
T1 sequence (P28907 1-300): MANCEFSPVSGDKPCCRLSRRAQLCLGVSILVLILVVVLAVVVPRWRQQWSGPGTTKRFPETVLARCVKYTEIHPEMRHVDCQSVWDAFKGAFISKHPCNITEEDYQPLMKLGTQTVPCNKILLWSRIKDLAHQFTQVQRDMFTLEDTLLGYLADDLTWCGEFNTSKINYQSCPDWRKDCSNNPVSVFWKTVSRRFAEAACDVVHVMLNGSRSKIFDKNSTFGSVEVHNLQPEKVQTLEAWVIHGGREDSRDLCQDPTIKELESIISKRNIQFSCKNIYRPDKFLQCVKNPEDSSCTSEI
Assay type: biochemical
Method: Enzyme assay on human recombinant CD38 enzyme were performed in order to determine the in vitro potency of the newly synthesized compounds. IC50 values were determined for the test compounds and used to explore the structure-activity relationships (SAR).
N6-etheno-NAD (ε-NAD), a NAD analogue previously shown to be a convenient substrate of CD38 enzyme activity (Graeff et al. J. Biol. Chem. 269, pp 30260-30367, […]) was used to measure the activity of human recombinant CD38 and cell surface enzyme activity.
A fluorimetric CD38 enzyme assay was performed as described by Graeff et al. The reaction was started with 10 µl of N6-etheno-NAD (ε-NAD) substrate, final concentration 100 µM, in a final volume of 0.1 ml buffered with 50 mM HEPES, 0.05% BRIJ, pH = 6.0 containing 100 ng/ml recombinant CD38 (R&D Systems, H7006). Cleavage of ε-NAD, which causes a 10-fold fluorescence enhancement, was continuously followed at 37°C in a BMG Polarstar spectrofluorometer at an emission wavelength of 410 nm and an excitation of 300 nm, reaction time was 30 min. NADase activity was expressed as Δ relative fluorescence/min. The rate of enzyme reactions were compared in the presence and absence of inhibitor molecule, the IC50 values were calculated with Biostat Speed program.
`O=C1N/C(=C\c2ccncc2)C(=O)N1c1ccccc1` [Compound 1, 3-Phenyl-5-[1-pyridin-4-yl-meth-(Z)-ylidene]-imidazolidine-2,4-dione.HCl salt] was tested, and the IC50 was 30 nM.
In the case of `C[C@@H]1CN(C(=O)c2ccc(N3C(=O)N/C(=C\c4ccncc4)C3=O)cc2)C[C@H](C)O1` [Compound 45, 3-[4-((2R,6S)-2,6-Dimethyl-morpholine-4-carbonyl)-phenyl]-5-[1-pyridin-4-yl-meth-(Z)-ylidene]-imidazolidine-2,4-dione], the IC50 is reported as 34 nM.
Compound `O=C1N/C(=C\c2ccncc2)C(=O)N1CCc1ccccc1` [Compound 18, 3-Phenethyl-5-[1-pyridin-4-yl-meth-(Z)-ylidene]-imidazolidine-2,4-dione] has an IC50 of 60 nM.
With `O=C(NC1CCCC1)c1ccc(N2C(=O)N/C(=C\c3ccncc3)C2=O)cc1` [Compound 49, N-Cyclopentyl-4-{2,5-dioxo-4-[1-pyridm-4-yl-meth-(Z)-ylidene]-imidazolidm-1-yl}-benzamide] the IC50 was 50 nM.
Work on `COc1ccc(N2C(=O)N/C(=C\c3ccncc3)C2=O)cc1` [Compound 17, 3-(4-Methoxy-phenyl)-5-[1-pyridin-4-yl-meth-(Z)-ylidene]-imidazolidine-2,4-dione] yielded an IC50 of 55 nM.
Work on `O=C(c1ccc(N2C(=O)N/C(=C\c3ccncc3)C2=O)cc1)N1CCCC1` [Compound 48, 5-[1-Pyridin-4-yl-meth-(Z)-ylidene]-3-[4-(pyrrolidine-1-carbonyl)-phenyl]-imidazolidine-2,4-dione] yielded an IC50 of 52 nM.
`N#Cc1ccc(N2C(=O)N/C(=C\c3ccncc3)C2=O)cc1` [Compound 11, 4-{2,5-Dioxo-4-[1-pyridin-4-yl-meth-(Z)-ylidene]-imidazolidin-1-yl} -benzonitrile] gave an IC50 of 30 nM.
`O=C1N/C(=C\c2ccncc2)C(=O)N1C1CCCCC1` [Compound 9, 3-Cyclohexyl-5-[1-pyridin-4-yl-meth-(Z)-ylidene]-imidazolidine-2,4-dione] showed an IC50 of 292 nM.
Compound `O=C(NCCN1CCOCC1)c1cccc(N2C(=O)N/C(=C\c3ccncc3)C2=O)c1` [Compound 34, 3-{2,5-Dioxo-4-[1-pyridin-4-yl-meth-(Z)-ylidene]-imidazolidin-1-yl}-N-(2-morpholin-4-yl-ethyl)-benzamide] has an IC50 of 65 nM.
`CC(=O)c1cccc(N2C(=O)N/C(=C\c3ccncc3)C2=O)c1` [Compound 13, 3-(3-Acetyl-phenyl)-5-[1-pyridin-4-yl-meth-(Z)-ylidene]-imidazolidine-2,4-dione] showed an IC50 of 30 nM.
With `CCOc1ccc(CCN2C(=O)N/C(=C\c3ccncc3)C2=O)cc1OCC` [Compound 36, 3-[2-(3,4-Diethoxy-phenyl)-ethyl]-5-[1-pyridin-4-yl-meth-(Z)-ylidene]-imidazolidine-2,4-dione] the IC50 was 250 nM.
With `O=C1N/C(=C\c2ccncc2)C(=O)N1c1ccc(Br)cc1` [Compound 20, 3-(4-Bromo-phenyl)-5-[1-pyridin-4-yl-meth-(Z)-ylidene]-imidazolidine-2,4-dione] the IC50 was 20 nM.
`O=C1N/C(=C\c2ccncc2)C(=O)N1C12CC3CC(CC(C3)C1)C2` [Compound 38, 3-Adamantan-1-yl-5-[1-pyridin-4-yl-meth-(Z)-ylidene]-imidazolidine-2,4-dione] showed an IC50 of 400 nM.
Compound `O=C(O)CN1C(=O)N/C(=C\c2ccncc2)C1=O` [Compound 46, {2,5-Dioxo-4-[1-pyridin-4-yl-meth-(Z)-ylidene]-imidazolidin-1-yl}-acetic acid] has an IC50 of 490 nM.
For `CC(C)N1C(=O)N/C(=C\c2ccncc2)C1=O` [Compound 21, 3-Isopropyl-5-[1-pyridin-4-yl-meth-(Z)-ylidene]-imidazolidine-2,4-dione], the IC50 was 40 nM.
`CN(C)c1ccc(N2C(=O)N/C(=C\c3ccncc3)C2=O)cc1` [Compound 14, 3-(4-Dimethylamino-phenyl)-5-[1-pyridin-4-yl-meth-(Z)-ylidene]-imidazolidine-2,4-dione] showed an IC50 of 90 nM.
`O=C1N/C(=C\c2ccncc2)C(=O)N1c1cccnc1` [Compound 39, 3-Pyridin-3-yl-5-[1-pyridin-4-yl-meth-(Z)-ylidene]-imidazolidine-2,4-dione] was tested, and the IC50 was 61 nM.
Work on `O=C(NC1CCCCC1)c1ccc(N2C(=O)N/C(=C\c3ccncc3)C2=O)cc1` [Compound 51, N-Cyclohexyl-4-{2,5-dioxo-4-[1-pyndin-4-yl-meth-(Z)-ylidene]-imidazolidin-1-yl}-benzamide] yielded an IC50 of 63 nM.
Work on `O=C(NC1CC1)c1ccc(N2C(=O)N/C(=C\c3ccncc3)C2=O)cc1` [Compound 50, N-Cyclopropyl-4-{2,5-dioxo-4-[1-pyridin-4-yl-meth-(Z)-ylidene]-imidazolidin-1-yl}-benzamide] yielded an IC50 of 63 nM.
Work on `O=C1N/C(=C\c2ccncc2)C(=O)N1c1ccc(F)cc1` [Compound 12, 3-(4-Fluoro-phenyl)-5-[1-pyridin-4-yl-meth-(2)-ylidene]-imidazolidine-2,4-dione] yielded an IC50 of 16 nM.
For `Cc1cccc(N2C(=O)N/C(=C\c3ccncc3)C2=O)c1` [Compound 3, 5-[1-Pyridin-4-yl-meth-(Z)-ylidene]-3-m-tolyl-imidazolidine-2,4-dione], the IC50 was 50 nM.
`CCOC(=O)CN1C(=O)N/C(=C\c2ccncc2)C1=O` [Compound 43, {2,5-Dioxo-4-[1-pyridin-4-yl-meth-(Z)-ylidene]-imidazolidin-1-yl}-acetic acid ethyl ester] showed an IC50 of 224 nM.
`O=C1N/C(=C\c2ccncc2)C(=O)N1c1ccc(C(F)(F)F)cc1` [Compound 31, 5-[1-Pyridin-4-yl-meth-(Z)-ylidene]-3-(4-trifluoromethyl-phenyl)-imidazolidine-2,4-dione] gave an IC50 of 43 nM.
`O=C1N/C(=C\c2ccncc2)C(=O)N1CCNC(=O)C(F)(F)F` [Compound 65, N-(2-{2,5-Dioxo-4-[1-pyridin-4-yl-meth-(Z)-ylidene]-imidazolidin-1-yl}-ethyl)-2,2,2-trifluoro-acetamide] showed an IC50 of 240 nM.
`O=C(O)c1cccc(N2C(=O)N/C(=C\c3ccncc3)C2=O)c1` [Compound 27, 3-{2,5-Dioxo-4-[1-pyridin-4-yl-meth-(Z)-ylidene]-imidazolidin-1-yl}-benzoic acid] gave an IC50 of 56 nM.
Work on `O=C1N/C(=C\c2ccncc2)C(=O)N1CC1(CO)CCC1` [Compound 63, 3-(1-Hydroxymethyl-cyclobutylmethyl)-5-[1-pyridin-4-yl-meth-(Z)-ylidene]-imidazolidine-2,4-dione] yielded an IC50 of 12 nM.
In the case of `CS(=O)(=O)c1ccc(N2C(=O)N/C(=C\c3ccncc3)C2=O)cc1` [Compound 26, 3-(4-Methanesulfonyl-phenyl)-5-[1-pyridin-4-yl-meth-(Z)-ylidene]-imidazolidine-2,4-dione], the IC50 is reported as 22 nM.
`O=C(c1ccc(N2C(=O)N/C(=C\c3ccncc3)C2=O)cc1)N1CCOCC1` [Compound 29, 3-[4-(Morpholine-4-carbonyl)-phenyl]-5-[1-pyridin-4-yl-meth-(Z)-ylidene]-imidazolidine-2,4-dione] showed an IC50 of 51 nM.
`O=C1N/C(=C\c2ccncc2)C(=O)N1C1CCC(O)CC1` (stereo not shown) [Compound 40, 3-(4-Hydroxy-cyclohexyl)-5-[1-pyridin-4-yl-meth-(Z)-ylidene]-imidazolidine-2,4-dione] was tested, and the IC50 was 214 nM.
`O=C1N/C(=C\c2ccncc2)C(=O)N1CC1(CO)CCCC1` [Compound 64, 3-(1-Hydroxymethyl-cyclopentylmethyl)-5-[1-pyridin-4-yl-meth-(Z)-ylidene]-imidazolidine-2,4-dione] gave an IC50 of 16 nM.
Work on `CC(C)(O)CCN1C(=O)N/C(=C\c2ccncc2)C1=O` [Compound 57, 3-(3-Hydroxy-3-methyl-butyl)-5-[1-pyridin-4-yl-meth-(Z)-ylidene] -imidazolidine-2,4-dione] yielded an IC50 of 20 nM.
With `O=C1N/C(=C\c2ccncc2)C(=O)N1c1cccc(Cl)c1` [Compound 5, 3-(3-Chloro-phenyl)-5-[1-pyridin-4-yl-meth-(Z)-ylidene]-imidazolidine-2,4-dione HCl-salt] the IC50 was 50 nM.
Work on `O=C(O)c1ccc(N2C(=O)N/C(=C\c3ccncc3)C2=O)cc1` [Compound 15, 4-{2,5-Dioxo-4-[1-pyridin-4-yl-meth-(Z)-ylidene]-imidazolidin-l-yl}-benzoic acid] yielded an IC50 of 110 nM.
`Cc1ccc(N2C(=O)N/C(=C\c3ccncc3)C2=O)cc1` [Compound 19, 5-[1-Pyndin-4-yl-meth-(Z)-ylidene]-3-p-totyl-imidazolidine-2,4-dione] gave an IC50 of 30 nM.
`CCCCCCN1C(=O)N/C(=C\c2ccncc2)C1=O` [Compound 22, 3-Hexyl-5-[1-pyridin-4-yl-meth-(Z)-ylidene]-imidazotidine-2,4-dione] showed an IC50 of 55 nM.
Compound `O=C(O)Cc1ccc(N2C(=O)N/C(=C\c3ccncc3)C2=O)cc1` [Compound 32, (4-{2,5-Dioxo-4-[1-pyndin-4-yl-meth-(Z)-ylidene]-imidazolidin-1-yl}-phenyl)-acetic acid] has an IC50 of 38 nM.
In the case of `CCc1ccc(N2C(=O)N/C(=C\c3ccncc3)C2=O)cc1` [Compound 4, 3-(4-Ethyl-phenyl)-5-[1-pyridin-4-yl-meth-(Z)-ylidene]-imidazolidine-2,4-dione], the IC50 is reported as 60 nM.
